Results on 3 molecules are retold here after ChEMBL document CHEMBL1158942, “Novel meroterpenoids from Cystoseira mediterranea: use of the crown-gall bioassay as a primary screen for lipophilic antineoplastic agents” (1991).

One may read the inhibition as the change of the read-out against control, counted positive when it falls. A high value points to strong suppression.

The test system of this experiment is Agrobacterium tumefaciens. Briefly: Antitumor activity against Agrobacterium tumefaciens B6-induced crown gall tumor in potato tubers at 10000 uM after 15 to 20 days by crown gall tumor potato disk test. The experiment is classed as functional.
`COc1cc(C)c(O)c(C/C=C(\C)CC(=O)CCCC(=O)C=C(C)C)c1` [MEDITERRANENONE] had an inhibition at 10000 µM of 76%.
Molecule `C/C(=C\Cc1cc(O)cc(C)c1O)CC(=O)C[C@@]1(C)CC2C(O)=CC(O)=C[C@]1(C)C2(C)C` [MEDITERRANEOL A] showed an inhibition at 10000 µM of 88%.
For the molecule `Cc1cc(O)cc2c1OC(C)(CC1=C3C[C@@H](O)C(C)(C)OC1C(C)(C)CCCC3=O)CC2` (stereo partly drawn) [CYSTOSEIROL], the inhibition at 10000 µM amounted to 73%.
